Data: patent EP4570244A1, “ENHANCING AGENT OF CARDIOLIPIN MOLECULAR SPECIES THAT IS MITOCHONDRIAL COMPONENT” (Watanabe Oyster Laboratory Co., Ltd., priority 2022, dated 2024)

Tests used:
[1] = system: Human renal proximal tubule cells (HK-2); test: Cardiolipin measurement by LC-MS/MS in HK-2 cells under oxidative stress stimulation; format: cell-based
Method: (§1) Human renal proximal tubule cells (HK-2) were subcultured in Dulbecco's Modified Eagle's Medium (DMEM, Nacalai Tesque) containing 10% fetal bovine serum and 1% penicillin-streptmycin at 37°C in a 5% CO2 incubator. The following experiments were conducted using the oxidative stress inducer to confirm the cardiolipin increase effect of DHMBA on the oxidative stress.
HK-2 cells were seeded in a 6-well plate at a density of 1.0 × 10^5 cells/well and cultured for 24 hours. The cells were then divided into four groups with different stimulus conditions, and 2 mL thereof was added to each well.
The above-described four groups with the different stimulus conditions are as follows.
Control group (culture medium); oxidative stress group (final concentration 100 µM Oxidative Stress); oxidative stress + DHMBA 250 group (final concentration 100 µM Oxidative Stress + final concentration 250 µM DHMBA); and oxidative stress + DHMBA 500 group (final concentration 100 µM Oxidative Stress + final concentration 500 µM DHMBA).
After 24 hours, the cells were washed twice with phosphate-buffered saline (hereinafter referred to as PBS), and then 1 mL of PBS was added to each well and the cells were recovered using a scraper. In this cell suspension, 100 µL was used for protein quantification by a bicinchoninic acid (BCA) method. The protein concentration was used for correction of the cardiolipin concentration. The remaining cell suspension was centrifuged at 1,200 rpm for 5 minutes, the supernatant was removed, and then the precipitated cells were stored at -80°C.
For the cardiolipin measurement, the total intracellular lipids were extracted in the same way as in the previous reports (Chen Z, et al. Metabolomics, 16: 115, 2020).
In short, the lipids in the sample were extracted using hexane/isopropanol 3:2 (v/v, with 0.05% butylated hydroxytoluene), and then dried and hardened in an evaporator. Next, the sample was dissolved in methanol (MeOH), and insoluble substances were removed by centrifugation at 15,000 rpm for 15 minutes at 4°C. The total lipids extracted were stored at -80°C. The cardiolipin measurement was performed using LC-MS/MS, following the same procedure as before.

HADHB = test: qPCR expression level of cardiolipin remodeling and degradation-related gene in HK-2 cells under oxidative stress; format: cell-based, Human; settings: oxidative stress + DHMBA, 24 hours, corrected with β-actin, FIG. 6
Method: as §1
(§2) HK-2 cells were seeded in a 6-well plate at a density of 5.0 × 10^4 cells/well and cultured for 24 hours.
(§3) Next, under the same stimulus conditions as described above, 2 mL thereof was added to each well. After 24 hours, total RNA was recovered using NucleoSpin (registered trademark) RNA Kit (MACHEREY-NAGEL). The concentration of the purified RNA was quantified by Nanodrop (Invitrogen). From 1.0 µg of the total RNA, cDNA was synthesized according to a protocol for ReverTra Ace (registered trademark) qPCR RT Master Mix with gDNA Remover (TOYOBO).
(§4) The gene expression levels were measured according to a protocol for THUNDERBIRD (registered trademark) SYBR (registered trademark) qPCR Mix (TOYOBO). Measurements were performed using a CFX Connect™ real-time PCR analysis system (BioRad), and analyzed using a 2^-(ΔΔCT) method.
(§5) The gene expression level of the control group was set at 1 for comparison. The figures are expressed as mean ± SD (n = 4 for each group). […]

PNPLA8 = test: as above; format: cell-based, Human; settings: oxidative stress + DHMBA, 24 hours, versus the increase in the oxidative stress group, corrected with β-actin, FIG. 6
Method: as §1, §2, §3, §4, §5

CDS2 = test: qPCR expression level of cardiolipin biosynthesis-related gene in HK-2 cells under oxidative stress; format: cell-based, Human; settings: oxidative stress + DHMBA, 24 hours, versus the increase in the oxidative stress group, corrected with β-actin, FIG. 5
Method: as §1, §2, §3, §4, §5

[2] = oxidative stress + DHMBA, acyl group distribution, FIG. 4

COc1c(O)cc(CO)cc1O [DHMBA, 3,5-dihydroxy-4-methoxybenzyl alcohol]
cardiolipin molecular species ([1]; 100 µM oxidative stress inducer + DHMBA (250 or 500 µM), 24 hours, almost all species, FIG. 2): increased significantly | total cardiolipin content ([1]; co-treatment with 100 µM oxidative stress and 250 µM or 500 µM DHMBA, 24 hours, increase, FIG. 3): about 1.5 times | saturated fatty acid chain FA16:0 of cardiolipin [1, 2]: decreased | unsaturated fatty acid chain FA18:1 of cardiolipin [1, 2]: increased | unsaturated fatty acid chain FA18:2 of cardiolipin [1, 2]: increased | expression level of HADHB (HADHB): increased | gene expression level of PNPLA8 (PNPLA8): decreased to the same level as the control group | gene expression level of CDS2 (CDS2): decreased to the same level as the control group
